Laboratory results from patent publication US20130012709A1, “NOVEL INHIBITORS OF STEAROYL-CoA-DESATURASE-1 AND THEIR USES” (CENTRE NATIONAL DE LA RECHERCHE SCIENTIFIQUE, priority 2009, published 2013).

Columns and labels:
LNCaP cells [1] = assay: Flow cytometry analysis of cell cycle; type: cell-based, human; conditions: CaP cells (LNCaP); with a decrease in the S phase
Method: (§1) Cells were then rinsed in PBS, pelleted at 400 g for 5 min and maintained on ice for 20 min before resuspension in a […] propidium iodide (Sigma) solution. Cells were kept overnight at 4° C. and the percentages of cells in G1, S and G2-M phases of the cell cycle were measured with a Coulter Epics XL™ flow cytometer (Becton Dickinson) using 488-nm laser excitation. For apoptosis experiment, MEFs were treated with the tested compound at 25 μM for 24 h, then rinced in PBS, pelleted at 400 g for 5 min and stained with annexinV-FITC (Roche Diagnostics, Meylan, France) for 15 min at 4° C. The percentage of annexin positive cells was immediately analysed using 488-nm laser excitation.

C4-2 cells [2] = assay: Flow cytometry analysis of cell cycle; type: cell-based, human; conditions: CaP cells (C4-2); with a decrease in the S phase
Method: as §1

LNCaP cells [3] = assay: PI(3,4,5)P3 mass ELISA; type: cell-based, human; conditions: 25 μM, 24 h, vs non-treated cells
Method: (§2) The production of PI(3,4,5)P3 (PIP3) in LNCaP and C4-2 prostate cancer cells was measured 24 h following exposure to control medium or to medium supplemented with the inhibitor tested at 25 μM. The levels of produced PIP3 were quantified after cellular lipids extraction using a PI(3,4,5)P3 mass ELISA kit according to the manufacturer's instruction.

C4-2 cells [4] = assay: PI(3,4,5)P3 mass ELISA; type: cell-based, human; conditions: C4-2, 25 μM, 24 h, vs non-treated cells
Method: as §2

SCDs = assay: Determination of SCD activity in transformed MEFs; type: cell-based, mouse; conditions: 25 μM
Method: Subconfluent LNCaP, C4-2, PNT2 of Ras SV40 MEFs cells grown in 6-wells plate were incubated with the tested inhibitor at 25 μM for 2 h in serum and fatty acid-free DMEM media supplemented 0.2% BSA. In this environment, the cells are solely dependent on endogenous fatty acid synthesis for production of storage, structural and signaling lipids. Trace amount of [^14C] palmitic acid were then added to the culture (0.5 μCi/well), and cells were incubated for 6 more hours. At the end of the incubation, total cell lipids were extracted and saponified, then released fatty acids were esterified with boron trifluoride in methanol for 90 min at 100° C. The derived methyl esters were separated by argentation TLC (Thermo Fisher Scientific) following the procedure of Wilson and Sargen, using a solvent phase consisting of hexane:ethyl ether (90:10, by vol) (35). Pure stearic and oleic methyl ester acids were run in parallel to the samples. Air-dried plates were scanned on a Phosphorlmager and fatty acid spots on TLC were analysed with Phosphorlmager software. SCD activity was expressed as the ratio of palmitoleic on palmitic methyl ester acids and normalized to cellular DNA content.

LNCaP cells [5] = assay: Proliferation assay (cell counting); type: cell-based, human; conditions: maximal dose used
Method: (§3) At 24 h, 48 h, 72 h and 96 h following addition of increasing concentrations of the tested compound in DMSO or DMSO alone, cells were trypsinized, pelleted by centrifugation at 1200 rpm for 5 min, resuspended in 500 μl of culture medium and counted in an hemocytometer.

C4-2 cells [6] = assay: Proliferation assay (cell counting); type: cell-based, human; conditions: C4-2, maximal dose used
Method: as §3

PNT2 cells = assay: Proliferation assay (cell counting); type: cell-based, human; conditions: non-cancerous PNT2, even at a maximal dose
Method: as §3

transformed MEFs = assay: Apoptosis, annexinV-FITC flow cytometry; type: cell-based, mouse; conditions: all transformed cells, 25 μM, 24 h
Method: as §1

## COc1ccc(Br)c(C(=O)N2CCN(c3ccc(C(=O)NCCCc4ccccc4)cn3)CC2)c1 [BZ36]
LNCaP cells [1]
  cell cycle distribution: accumulation of cells in the G0/G1 phase
C4-2 cells [2]
  cell cycle distribution: accumulation of cells in the G0/G1 phase
LNCaP cells [3]
  decrease of PI(3,4,5)P3 concentration: 84%
C4-2 cells [4]
  decrease of PI(3,4,5)P3 concentration: 92%
SCDs
  [14C]-palmitoleic to palmitic methyl ester acids ratio: decreased lipogenesis
LNCaP cells [5]
  inhibition of cell proliferation: 100%
C4-2 cells [6]
  inhibition of cell proliferation: 100%
PNT2 cells
  effect in proliferation: no effect
Transformed MEFs
  cell death (annexin V-positive cells): strong induction of cell death
